The source of these data is patent US20230077362A1 (CORTEVA AGRISCIENCE LLC, priority 2019, published 2023).

The structures appear in SMILES notation.

Assay [1] relates to Beet Armyworm (Spodoptera exigua) ("BAW"), second instar larvae. The assay can be described thus: Bioassay on beet armyworm (BAW), 128-well diet tray assay. It counts as in vivo. The following applies: Spodoptera exigua, read-out: BAW (Biological Results, rating). As to the method: (§1) Certain molecules disclosed in this document were tested against BAW and CL using procedures described in the following examples. In the reporting of the results, the “BAW & CL Rating Table” was used (See Table Section).
(§2) Trays were covered with a clear self-adhesive cover and held at 25° C., 14:10 light-dark cycle for five to seven days. Percent mortality was recorded for the larvae in each well; activity in the eight wells was then averaged. The results are indicated in the table entitled “Table ABC: Biological Results” (See Table Section).

The test system of assay [2] is Cabbage Looper (Trichoplusia ni) ("CL"), second instar larvae. The assay can be described thus: Bioassay on cabbage looper (CL), 128-well diet tray assay. It counts as in vivo. The following applies: Trichoplusia ni, read-out: CL (Biological Results, rating). As to the method: as §1, §2

In the case of `COc1ccc(C(C)C)c(N2C(=O)CS/C2=N\C(=O)Nc2ccc(-c3ncn(-c4ccc(C(F)(F)F)cc4)n3)cc2F)c1` [Compound J11, (Z)-1-(2-Fluoro-4-(1-(4-(trifluoromethyl)phenyl)-1H-1,2,4-triazol-3-yl)phenyl)-3-(3-(2-isopropyl-5-methoxyphenyl)-4-oxothiazolidin-2-ylidene)urea], the pest or weed control at 50 µg/cm2 in assay [1] and in assay [2] was 50 to 100% throughout.
In the case of `CCCc1ccc(C)cc1N1C(=O)CS/C1=N\C(=O)Nc1ccc(-c2ncn(-c3ccc(OC(F)(F)C(F)(F)F)cc3)n2)c(C)c1` [Compound J12, (Z)-1-(3-(5-Methyl-2-propylphenyl)-4-oxothiazolidin-2-ylidene)-3-(3-methyl-4-(1-(4-(perfluoroethoxy)phenyl)-1H-1,2,4-triazol-3-yl)phenyl)urea], the pest or weed control at 50 µg/cm2 in assay [1] and in assay [2] was 50 to 100% each time.
Take `COc1cc(-c2ncn(-c3ccc(C(F)(F)F)cc3)n2)ccc1NC(=O)/N=C1\SCC(=O)N1c1cc(C)ccc1C(C)C` [Compound J13, (Z)-1-(3-(2-Isopropyl-5-methylphenyl)-4-oxothiazolidin-2-ylidene)-3-(2-methoxy-4-(1-(4-(trifluoromethyl)phenyl)-1H-1,2,4-triazol-3-yl)phenyl)urea]: the pest or weed control at 50 µg/cm2 in assay [1] and in assay [2] was 50 to 100% throughout.
For the compound `CCc1ccc(C)cc1N1C(=O)CS/C1=N\C(=O)Nc1ccc(-c2ncn(-c3ccc(OC(F)(F)C(F)(F)F)cc3)n2)c(C)c1` [Compound J14, (Z)-1-(3-(2-Ethyl-5-methylphenyl)-4-oxothiazolidin-2-ylidene)-3-(3-methyl-4-(1-(4-(perfluoroethoxy)phenyl)-1H-1,2,4-triazol-3-yl)phenyl)urea], the pest or weed control at 50 µg/cm2 in assay [1] and in assay [2] was 50 to 100% each time.
On to `CCCc1ccc(C)cc1N1C(=O)CS/C1=N\C(=O)Nc1ccc(-c2ncn(-c3ccc(C(F)(F)F)cc3)n2)cc1C` [Compound J15, (Z)-1-(3-(5-Methyl-2-propylphenyl)-4-oxothiazolidin-2-ylidene)-3-(2-methyl-4-(1-(4-(trifluoromethyl)phenyl)-1H-1,2,4-triazol-3-yl)phenyl)urea], for which the pest or weed control at 50 µg/cm2 in assay [1] and in assay [2] was 50 to 100% in each case.
Consider `COc1ccc(C(C)C)c(N2C(=O)CS/C2=N\C(=O)Nc2ccc(-c3ncn(-c4ccc(OC(F)(F)F)cc4)n3)c(C)c2)c1` [Compound J22, (Z)-1-(3-(2-Isopropyl-5-methoxyphenyl)-4-oxothiazolidin-2-ylidene)-3-(3-methyl-4-(1-(4-(trifluoromethoxy)phenyl)-1H-1,2,4-triazol-3-yl)phenyl)urea], for which the pest or weed control at 50 µg/cm2 in assay [1] and in assay [2] was 50 to 100% in each case.
For the compound `Cc1ccc(C(C)C)c(N2C(=O)CS/C2=N\C(=O)Nc2ccc(-c3ncn(-c4ccc(OC(F)(F)F)cc4)n3)c(C)c2)c1` [Compound J23, (Z)-1-(3-(2-Isopropyl-5-methylphenyl)-4-oxothiazolidin-2-ylidene)-3-(3-methyl-4-(1-(4-(trifluoromethoxy)phenyl)-1H-1,2,4-triazol-3-yl)phenyl)urea], the pest or weed control at 50 µg/cm2 in assay [1] and in assay [2] was 50 to 100% each time.
`Cc1ccc(C(C)C)c(N2C(=O)CS/C2=N\C(=O)Nc2ccc(-c3ncn(-c4ccc(OC(F)(F)C(F)(F)F)cc4)n3)cc2C)c1` [Compound J24, (Z)-1-(3-(2-Isopropyl-5-methylphenyl)-4-oxothiazolidin-2-ylidene)-3-(2-methyl-4-(1-(4-(perfluoroethoxy)phenyl)-1H-1,2,4-triazol-3-yl)phenyl)urea]: the pest or weed control at 50 µg/cm2 in assay [1] and in assay [2] was 50 to 100% throughout.
As for `COc1ccc(C(C)C)c(N2C(=O)CS/C2=N\C(=O)Nc2ccc(-c3ncn(-c4ccc(OC(F)(F)C(F)(F)F)cc4)n3)cc2C)c1` [Compound J25, (Z)-1-(3-(2-Isopropyl-5-methoxyphenyl)-4-oxothiazolidin-2-ylidene)-3-(2-methyl-4-(1-(4-(perfluoroethoxy)phenyl)-1H-1,2,4-triazol-3-yl)phenyl)urea], the pest or weed control at 50 µg/cm2 in assay [1] and in assay [2] was 50 to 100% throughout.
As for `Cc1ccc(C(C)C)c(N2C(=O)CS/C2=N\C(=O)Nc2ccc(-c3ncn(-c4ccc(OC(F)(F)C(F)(F)F)cc4)n3)cc2F)c1` [Compound J26, (Z)-1-(2-Fluoro-4-(1-(4-(perfluoroethoxy)phenyl)-1H-1,2,4-triazol-3-yl)phenyl)-3-(3-(2-isopropyl-5-methylphenyl)-4-oxothiazolidin-2-ylidene)urea], the pest or weed control at 50 µg/cm2 in assay [1] and in assay [2] was 50 to 100% throughout.
`COc1ccc(C(C)C)c(N2C(=O)CS/C2=N\C(=O)Nc2ccc(-c3ncn(-c4ccc(OC(F)(F)C(F)(F)F)cc4)n3)cc2F)c1` [Compound J27, (Z)-1-(2-Fluoro-4-(1-(4-(perfluoroethoxy)phenyl)-1H-1,2,4-triazol-3-yl)phenyl)-3-(3-(2-isopropyl-5-methoxyphenyl)-4-oxothiazolidin-2-ylidene)urea]: the pest or weed control at 50 µg/cm2 in assay [1] and in assay [2] was 50 to 100% each time.
As to `COc1cc(-c2ncn(-c3ccc(OC(F)(F)C(F)(F)F)cc3)n2)ccc1NC(=O)/N=C1\SCC(=O)N1c1cc(C)ccc1C(C)C` [Compound J28, (Z)-1-(3-(2-Isopropyl-5-methylphenyl)-4-oxothiazolidin-2-ylidene)-3-(2-methoxy-4-(1-(4-(perfluoroethoxy)phenyl)-1H-1,2,4-triazol-3-yl)phenyl)urea], the pest or weed control at 50 µg/cm2 in assay [1] and in assay [2] was 50 to 100% each time.
As for `COc1ccc(C(C)C)c(N2C(=O)CS/C2=N\C(=O)Nc2ccc(-c3ncn(-c4ccc(OC(F)(F)C(F)(F)F)cc4)n3)cc2OC)c1` [Compound J29, (Z)-1-(3-(2-Isopropyl-5-methoxyphenyl)-4-oxothiazolidin-2-ylidene)-3-(2-methoxy-4-(1-(4-(perfluoroethoxy)phenyl)-1H-1,2,4-triazol-3-yl)phenyl)urea], the pest or weed control at 50 µg/cm2 in assay [1] and in assay [2] was 50 to 100% throughout.
Consider `Cc1ccc(C(F)(F)F)c(N2C(=O)CS/C2=N\C(=O)Nc2ccc(-c3ncn(-c4ccc(OC(F)(F)F)cc4)n3)cc2F)c1` [Compound J30, (Z)-1-(2-Fluoro-4-(1-(4-(trifluoromethoxy)phenyl)-1H-1,2,4-triazol-3-yl)phenyl)-3-(3-(5-methyl-2-(trifluoromethyl)phenyl)-4-oxothiazolidin-2-ylidene)urea], for which the pest or weed control at 50 µg/cm2 in assay [1] and in assay [2] was 50 to 100% each time.
On to `Cc1ccc(OCC(F)(F)F)c(N2C(=O)CS/C2=N\C(=O)Nc2ccc(-c3ncn(-c4ccc(OC(F)(F)F)cc4)n3)cc2F)c1` [Compound J31, (Z)-1-(2-Fluoro-4-(1-(4-(trifluoromethoxy)phenyl)-1H-1,2,4-triazol-3-yl)phenyl)-3-(3-(5-methyl-2-(2,2,2-trifluoroethoxy)phenyl)-4-oxothiazolidin-2-ylidene)urea], for which the pest or weed control at 50 µg/cm2 in assay [1] and in assay [2] was 50 to 100% in each case.
Regarding `Cc1ccc(C(F)(F)F)c(N2C(=O)C(Cl)S/C2=N\C(=O)Nc2ccc(-c3ncn(-c4ccc(OC(F)(F)F)cc4)n3)cc2F)c1` (stereo not shown) [Compound J34, (Z)-1-(5-Chloro-3-(5-methyl-2-(trifluoromethyl)phenyl)-4-oxothiazolidin-2-ylidene)-3-(2-fluoro-4-(1-(4-(trifluoromethoxy)phenyl)-1H-1,2,4-triazol-3-yl)phenyl)urea], the pest or weed control at 50 µg/cm2 in assay [1] and in assay [2] was 50 to 100% each time.
For the compound `Cc1ccc(OCCC(F)(F)F)c(N2C(=O)C(Cl)S/C2=N\C(=O)Nc2ccc(-c3ncn(-c4ccc(OC(F)(F)F)cc4)n3)cc2F)c1` (stereo not shown) [Compound J36, (Z)-1-(5-Chloro-3-(5-methyl-2-(3,3,3-trifluoropropoxy)phenyl)-4-oxothiazolidin-2-ylidene)-3-(2-fluoro-4-(1-(4-(trifluoromethoxy)phenyl)-1H-1,2,4-triazol-3-yl)phenyl)urea], the pest or weed control at 50 µg/cm2 in assay [1] and in assay [2] was 50 to 100% throughout.
Regarding `COc1ccc(C(C)C)c(N2C(=O)CS/C2=N\C(=O)Nc2ccc(-c3ncn(-c4ccc(OC(F)(F)F)cc4)n3)cc2Cl)c1` [Compound J37, (Z)-1-(2-Chloro-4-(1-(4-(trifluoromethoxy)phenyl)-1H-1,2,4-triazol-3-yl)phenyl)-3-(3-(2-isopropyl-5-methoxyphenyl)-4-oxothiazolidin-2-ylidene)urea], the pest or weed control at 50 µg/cm2 in assay [1] and in assay [2] was 50 to 100% throughout.
Take `Cc1ccc(C(C)C)c(N2C(=O)CS/C2=N\C(=O)Nc2ccc(-c3ncn(-c4ccc(OC(F)(F)F)cc4)n3)cc2Cl)c1` [Compound J38, (Z)-1-(2-Chloro-4-(1-(4-(trifluoromethoxy)phenyl)-1H-1,2,4-triazol-3-yl)phenyl)-3-(3-(2-isopropyl-5-methylphenyl)-4-oxothiazolidin-2-ylidene)urea]: the pest or weed control at 50 µg/cm2 in assay [1] and in assay [2] was 50 to 100% in each case.
On to `Cc1ccc(C(F)(F)F)c(N2C(=O)CS/C2=N\C(=O)Nc2ccc(-c3ncn(-c4ccc(OC(F)(F)F)cc4)n3)cc2Cl)c1` [Compound J39, (Z)-1-(2-Chloro-4-(1-(4-(trifluoromethoxy)phenyl)-1H-1,2,4-triazol-3-yl)phenyl)-3-(3-(5-methyl-2-(trifluoromethyl)phenyl)-4-oxothiazolidin-2-ylidene)urea], for which the pest or weed control at 50 µg/cm2 in assay [1] and in assay [2] was 50 to 100% in each case.
